Target: GluK2 Y521C L783C (Rattus norvegicus, UniProt P42260, Y521C/L783C)
Test: outside-out patch single-channel and macroscopic currents
Assay type: cell-based

Chain of GluK2 Y521C L783C (P42260 32-908 Y521C/L783C): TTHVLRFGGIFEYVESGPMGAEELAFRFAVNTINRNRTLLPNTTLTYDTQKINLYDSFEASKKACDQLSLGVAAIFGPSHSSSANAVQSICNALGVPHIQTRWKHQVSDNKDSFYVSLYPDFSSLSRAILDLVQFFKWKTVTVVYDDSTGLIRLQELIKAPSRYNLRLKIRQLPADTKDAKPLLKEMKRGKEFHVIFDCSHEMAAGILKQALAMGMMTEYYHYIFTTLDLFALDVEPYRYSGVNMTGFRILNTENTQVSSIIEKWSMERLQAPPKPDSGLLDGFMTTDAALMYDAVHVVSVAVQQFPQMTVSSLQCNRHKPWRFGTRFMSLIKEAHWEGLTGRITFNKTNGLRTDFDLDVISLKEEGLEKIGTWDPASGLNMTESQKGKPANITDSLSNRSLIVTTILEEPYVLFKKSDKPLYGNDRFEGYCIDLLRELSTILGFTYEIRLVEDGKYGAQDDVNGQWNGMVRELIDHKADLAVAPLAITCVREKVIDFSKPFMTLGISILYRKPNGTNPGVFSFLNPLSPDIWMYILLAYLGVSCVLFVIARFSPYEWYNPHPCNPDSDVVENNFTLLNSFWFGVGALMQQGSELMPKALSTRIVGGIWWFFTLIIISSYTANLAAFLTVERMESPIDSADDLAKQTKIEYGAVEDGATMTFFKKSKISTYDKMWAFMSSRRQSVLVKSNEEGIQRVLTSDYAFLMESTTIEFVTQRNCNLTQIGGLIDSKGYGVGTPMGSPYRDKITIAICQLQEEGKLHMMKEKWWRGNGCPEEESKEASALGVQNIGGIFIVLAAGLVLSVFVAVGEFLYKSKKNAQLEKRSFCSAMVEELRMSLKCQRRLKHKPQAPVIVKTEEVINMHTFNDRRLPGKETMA

N[C@@H](CCC(=O)O)C(=O)O [L-Glu]
outside-out patch single-channel and macroscopic currents: Unitary current events elicited by L-Glu acting on Y521C L783C channels

Source: publication PMC4972573 (Nature structural & molecular biology, 2013)
